Patent publication US20090264384A1, “INDOLE, BENZIMIDAZOLE, AND BENZOLACTAM BORONIC ACID COMPOUNDS, ANALOGS THEREOF AND METHODS OF USE THEREOF” (Nuada, Inc., priority 2004, published 2009)

What was measured:
NE transporter(h) = molecular target: T1, NE transporter(h) (Homo sapiens, UniProt P23975); test: NE transporter(h) binding assay; conditions: Hill coefficient, reference compound
T1 construct: expressed in transfected cells; host or cells: MDCK cells

σ (non-selective) = σ (non-selective) binding assay; set-up: species or system rat
Phosphodiesterase 5(h) = molecular target: T2, Phosphodiesterase 5(h) (Homo sapiens, UniProt O76074); test: Phosphodiesterase 5(h) enzyme assay; format: biochemical; conditions: Hill coefficient, Phosphodiesterase 5(h)
T2 construct: human platelets; from tissue; host or cells: human platelets

Cl-channel = Cl-channel binding assay; set-up: species or system rat; conditions: Hill coefficient, reference compound
ETB(h) = molecular target: T3, ETB(h) (Homo sapiens, UniProt P24530); test: ETB(h) binding assay; conditions: Hill coefficient, reference compound
T3 construct: expressed in transfected cells; host or cells: CHO cells

NK1(h) = molecular target: T4, NK1(h) (Homo sapiens, UniProt P25103); test: NK1(h) binding assay; conditions: Hill coefficient, reference compound
T4 construct: NK1(h); U-373MG cells; [Sar^9,Met(O2)^11]-SP; Heuillet et al. (1993); endogenous in cells; host or cells: U-373MG cells
T4 sequence (P25103 whole entry): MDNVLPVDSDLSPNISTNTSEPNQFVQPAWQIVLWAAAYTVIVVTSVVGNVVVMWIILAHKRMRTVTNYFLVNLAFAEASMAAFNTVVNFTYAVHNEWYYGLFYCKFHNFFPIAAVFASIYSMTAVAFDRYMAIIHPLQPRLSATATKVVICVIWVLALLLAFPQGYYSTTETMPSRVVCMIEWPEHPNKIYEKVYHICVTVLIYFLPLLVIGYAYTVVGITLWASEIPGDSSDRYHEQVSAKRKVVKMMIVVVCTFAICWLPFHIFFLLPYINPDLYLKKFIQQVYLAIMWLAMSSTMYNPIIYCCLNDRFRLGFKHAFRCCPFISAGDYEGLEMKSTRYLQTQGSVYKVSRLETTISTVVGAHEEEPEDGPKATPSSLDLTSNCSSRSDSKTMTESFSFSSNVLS

Acetylcholinesterase(h) = molecular target: T5, Acetylcholinesterase(h) (Homo sapiens, UniProt P22303); test: Acetylcholinesterase(h) enzyme assay; format: biochemical; conditions: Hill coefficient, Acetylcholinesterase(h)
T5 construct: host or cells: HEK-293 cells

Phosphodiesterase 1 = Phosphodiesterase 1 enzyme assay; format: biochemical, bovine; conditions: reference compound, Phosphodiesterase 1
GABA (non-selective) = format: binding, rat; conditions: Hill coefficient, reference compound
α1 (non-selective) = α1 (non-selective) binding assay; set-up: species or system rat
Androgen(h) (AR) = molecular target: T6, Androgen(h) (AR) (Homo sapiens, UniProt P10275, T878A); test: Androgen(h) (AR) binding assay
T6 construct: LNCaP cells; endogenous in cells; host or cells: LNCaP cells (cytosol)

ETA(h) = molecular target: T7, ETA(h) (Homo sapiens, UniProt P25101); test: ETA(h) binding assay
T7 construct: expressed in transfected cells; host or cells: CHO cells
T7 sequence (P25101 21-427): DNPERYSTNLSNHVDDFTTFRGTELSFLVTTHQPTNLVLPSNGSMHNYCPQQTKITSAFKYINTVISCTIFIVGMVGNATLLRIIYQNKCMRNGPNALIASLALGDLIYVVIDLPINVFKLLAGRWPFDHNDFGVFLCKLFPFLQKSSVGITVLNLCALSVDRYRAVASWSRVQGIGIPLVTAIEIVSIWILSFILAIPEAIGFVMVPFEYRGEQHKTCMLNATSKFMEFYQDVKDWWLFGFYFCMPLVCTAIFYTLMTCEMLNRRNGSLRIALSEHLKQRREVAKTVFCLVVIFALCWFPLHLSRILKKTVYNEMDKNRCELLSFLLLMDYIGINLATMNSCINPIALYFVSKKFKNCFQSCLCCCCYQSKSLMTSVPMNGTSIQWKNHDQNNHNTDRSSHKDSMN

H2(h) = molecular target: T8, H2(h) (Homo sapiens, UniProt P25021); test: H2(h) binding assay; conditions: Hill coefficient, reference compound
T8 construct: expressed in transfected cells; host or cells: CHO cells

[1] = system: chronic colitis provoked by trinitrobenzene sulphonic acid (TNBS); test: Rat model of chronic colitis provoked by TNBS over 14 days, treatment from Day 1; format: in vivo; conditions: 3 mg/kg i.v. on Day 1 and Day 7
Excerpt: In the chronic model of colitis, assessment of the colonic inflammation is made 14 days or longer, after the intracolonic challenge with TNBS (Boughton-Smith et al, 1988a, 1988b; Wallace et al, 1989; Rachmilewitz et al, 1989; Wallace and Keenan, 1990; Ameho et al, 1987; Sans et al, 1999; Sun et al, 2001; Maric et al, 2003; Moreels et al, 2004; Gonzalez et al, 2004). This model allows treatment with experimental agents to commence following the establishment of the colonic injury, typically 24 hours after the TNBS challenge (Galvez et al, 2000, Villegas, 2003, Gonzalez et al, 2004). The model should therefore identify the ability of the experimental compounds to accelerate the diminution of the inflammatory response and to promote healing of the colonic lesions. This model thus has relevance additional to the acute model, as the clinical correlate is the therapeutic intervention in patients with existing IBD not in remission or with flare-up, to reduce the crisis. This contrasts with the acute TNBS model where the compounds are administered one or two days prior to challenge, the clinical correlate being the use of prophylactic therapy to prevent flare-up and maintain remission in IBD patients.
In this current study, the low intracolonic challenge concentration of TNBS used in the acute studies was also used for the chronic study over a 14 day period. This concentration and timing was based on the findings from pilot studies where a range of concentrations of TNBS and treatment conditions were evaluated over a 14 day period. […].
The methods and protocol used were substantially similar to those in Example 39-40, with some differences described below.
TNBS Challenge. Male Wistar rats (average body weight, 210 g) were randomised into groups before commencement of the study. In all groups, including the non-challenged and non-treated absolute control group, food was withdrawn for 12 h before TNBS administration (i.e. overnight on Day −1), but the rats were allowed free access to drinking water.
On the morning of the day of challenge (Day 0, between 9.00 and 1 1.00 a.m.), the rats were transiently anaesthetised with ether and the TNBS solution (10 mg in 0.25 ml of 50% ethanol) was instilled approximately 6-8 cm into the colon using a soft plastic catheter inserted in the rat rectum. The rats were allowed to recover with free access to food and drinking water. At the end of the experiment, on the morning of Day 14, between 9.00 and 11.00), the colon was dissected, and the distal 8 cm photographed and immediately processed or stored appropriately for subsequent analyses.
The following primary parameters were measured in the study: macroscopic scoring of distal 8 cm of colon; myeloperoxidase levels in segments of distal 8 cm of colon; TNF-α levels in segments of distal 8 cm of colon.
In addition, the weight of the standard colonic segment was assessed as an indirect and non-specific marker of oedema. The body weight of the animals was also determined each evening of the study, starting on Day-1, and also on the morning of Day 14. The data is shown graphically as the % change from the weight on Day-1, prior to challenge.
Treatments. The TNBS challenged groups for study were: (a) Vehicle control 0.5% carboxy methyl cellulose (CMC) p.o., twice daily from Day; (b) CCI-7506 25 mg/kg, p.o., twice daily from Day 1 (50 mg/kg/day total); (c) CCI-7506 50 mg/kg, p.o., twice daily from Day 1 (100 mg/kg/day total); (d) CCI-7507 12.5 mg/kg, p.o., twice daily from Day 1 (25 mg/kg/day total); (e) CCI-7507 25 mg/kg, p.o., twice daily from Day 1(50 mg/kg/day total); […]; (g) Infliximab 3 mg/kg, single slow i.v. injection, on Day 1 and Day7.
The experimental compounds that were administered orally were given twice a day from Day 1, i.e. 24 h following TNBS administration, for the remainder of the 14 day experimental period. Infliximab was administered by slow i.v. injection of Day 1 and on Day 7. […]

TNBS colitis = conditions: single intravenous dose pre-treatment; 8 days after TNBS challenge; cited from earlier work
[2] = molecular target: N (neuronal) (α-BGTX-insensitive) (Rattus norvegicus, UniProt P09483+P12390); test: N (neuronal) (α-BGTX-insensitive) binding assay; conditions: Hill coefficient, reference compound
5-HT transporter(h) = molecular target: T9, 5-HT transporter(h) (Homo sapiens, UniProt P31645); test: 5-HT transporter(h) binding assay; conditions: Hill coefficient, reference compound
T9 construct: expressed in transfected cells; host or cells: HEK-293 cells
T9 sequence (P31645 whole entry): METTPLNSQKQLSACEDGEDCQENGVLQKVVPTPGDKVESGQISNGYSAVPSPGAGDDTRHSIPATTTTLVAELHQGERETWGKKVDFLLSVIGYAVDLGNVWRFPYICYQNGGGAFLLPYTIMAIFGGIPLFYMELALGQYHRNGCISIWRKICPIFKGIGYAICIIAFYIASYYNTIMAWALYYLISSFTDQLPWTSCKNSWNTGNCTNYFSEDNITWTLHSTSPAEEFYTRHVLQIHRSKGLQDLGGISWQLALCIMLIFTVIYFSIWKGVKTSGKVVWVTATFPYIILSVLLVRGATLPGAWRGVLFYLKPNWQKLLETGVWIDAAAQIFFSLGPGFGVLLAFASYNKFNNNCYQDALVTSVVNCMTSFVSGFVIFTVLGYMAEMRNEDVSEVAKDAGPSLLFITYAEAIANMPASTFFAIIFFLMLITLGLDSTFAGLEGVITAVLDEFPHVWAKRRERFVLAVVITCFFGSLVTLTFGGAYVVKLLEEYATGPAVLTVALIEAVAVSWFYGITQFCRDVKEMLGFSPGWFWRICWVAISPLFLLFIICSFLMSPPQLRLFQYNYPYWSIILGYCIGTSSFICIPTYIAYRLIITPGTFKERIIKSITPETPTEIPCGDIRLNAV

Cytochrome P450 (CYP) [3] = molecular target: Cytochrome P450 (CYP) (Homo sapiens, UniProt P05177)
Sequence of Cytochrome P450 (CYP) (Homo sapiens, UniProt P05177) (P05177 whole entry): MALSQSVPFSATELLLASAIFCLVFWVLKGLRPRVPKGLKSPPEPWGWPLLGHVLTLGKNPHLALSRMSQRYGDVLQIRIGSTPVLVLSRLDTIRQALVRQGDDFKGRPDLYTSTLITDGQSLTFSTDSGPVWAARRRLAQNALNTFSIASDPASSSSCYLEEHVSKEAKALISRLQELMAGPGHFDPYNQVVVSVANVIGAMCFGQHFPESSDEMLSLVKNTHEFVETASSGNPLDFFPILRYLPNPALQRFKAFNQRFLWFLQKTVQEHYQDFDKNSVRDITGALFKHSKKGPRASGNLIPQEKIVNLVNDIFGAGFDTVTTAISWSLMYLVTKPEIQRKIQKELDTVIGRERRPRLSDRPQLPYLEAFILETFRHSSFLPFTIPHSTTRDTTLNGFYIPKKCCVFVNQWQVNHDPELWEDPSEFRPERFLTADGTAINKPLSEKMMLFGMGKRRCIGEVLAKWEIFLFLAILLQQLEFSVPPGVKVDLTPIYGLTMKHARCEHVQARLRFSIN

[4] = molecular target: Catechol-O-methyl transferase; test: Catechol-O-methyl transferase enzyme assay; format: biochemical, porcine; conditions: reference compound, Catechol-O-methyl transferase
Sequence of Catechol-O-methyl transferase (Q99028 whole entry): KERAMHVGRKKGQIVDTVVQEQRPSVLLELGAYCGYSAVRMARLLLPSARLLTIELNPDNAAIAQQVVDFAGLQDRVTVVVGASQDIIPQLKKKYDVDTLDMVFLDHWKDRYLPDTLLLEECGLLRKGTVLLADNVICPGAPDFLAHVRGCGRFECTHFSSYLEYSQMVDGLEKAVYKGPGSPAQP

DA transporter(h) = molecular target: T10, DA transporter(h) (Homo sapiens, UniProt Q01959); test: DA transporter(h) binding assay
T10 construct: expressed in transfected cells; host or cells: CHO cells
T10 sequence (Q01959 whole entry): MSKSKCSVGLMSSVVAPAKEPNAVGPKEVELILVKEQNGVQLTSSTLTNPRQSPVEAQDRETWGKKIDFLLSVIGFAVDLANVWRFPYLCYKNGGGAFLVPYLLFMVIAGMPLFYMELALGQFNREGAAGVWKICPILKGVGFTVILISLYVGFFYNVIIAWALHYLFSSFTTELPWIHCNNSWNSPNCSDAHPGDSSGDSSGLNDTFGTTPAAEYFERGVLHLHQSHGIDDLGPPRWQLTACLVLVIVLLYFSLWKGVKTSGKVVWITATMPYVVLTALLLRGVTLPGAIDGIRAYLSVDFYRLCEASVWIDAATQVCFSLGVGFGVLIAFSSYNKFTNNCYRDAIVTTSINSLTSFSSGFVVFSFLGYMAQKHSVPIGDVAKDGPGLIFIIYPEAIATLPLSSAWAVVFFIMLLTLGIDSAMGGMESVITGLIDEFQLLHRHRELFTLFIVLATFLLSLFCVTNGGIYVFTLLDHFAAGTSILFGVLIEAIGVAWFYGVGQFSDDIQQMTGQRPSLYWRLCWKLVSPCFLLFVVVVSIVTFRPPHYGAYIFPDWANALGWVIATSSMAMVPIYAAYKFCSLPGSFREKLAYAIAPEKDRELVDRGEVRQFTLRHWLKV

[5] = molecular target: Ca^2+ channel (L, diltiazem site) (benzothiazepines) (Rattus norvegicus, UniProt P22002); test: Ca^2+ channel (L, diltiazem site) binding assay
NK3(h) = molecular target: T11, NK3(h) (Homo sapiens, UniProt P29371); test: NK3(h) binding assay; conditions: Hill coefficient, reference compound
T11 construct: expressed in transfected cells; host or cells: CHO cells
T11 sequence (P29371 whole entry): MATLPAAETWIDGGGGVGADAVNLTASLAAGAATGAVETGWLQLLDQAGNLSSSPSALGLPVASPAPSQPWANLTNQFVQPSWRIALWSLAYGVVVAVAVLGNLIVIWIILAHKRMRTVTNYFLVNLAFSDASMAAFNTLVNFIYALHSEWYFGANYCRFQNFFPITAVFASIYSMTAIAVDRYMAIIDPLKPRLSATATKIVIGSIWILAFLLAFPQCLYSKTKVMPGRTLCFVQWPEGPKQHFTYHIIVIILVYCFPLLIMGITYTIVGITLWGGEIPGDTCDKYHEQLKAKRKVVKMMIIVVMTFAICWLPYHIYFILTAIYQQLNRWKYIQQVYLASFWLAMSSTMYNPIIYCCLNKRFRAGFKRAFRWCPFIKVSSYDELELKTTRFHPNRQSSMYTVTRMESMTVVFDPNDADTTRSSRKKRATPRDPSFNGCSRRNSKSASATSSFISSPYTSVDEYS

V2(h) = molecular target: T12, V2(h) (Homo sapiens, UniProt P30518); test: V2(h) binding assay
T12 construct: expressed in transfected cells; host or cells: CHO cells

NK2(h) = molecular target: T13, NK2(h) (Homo sapiens, UniProt P21452); test: NK2(h) binding assay
T13 construct: expressed in transfected cells; host or cells: CHO cells
T13 sequence (P21452 whole entry): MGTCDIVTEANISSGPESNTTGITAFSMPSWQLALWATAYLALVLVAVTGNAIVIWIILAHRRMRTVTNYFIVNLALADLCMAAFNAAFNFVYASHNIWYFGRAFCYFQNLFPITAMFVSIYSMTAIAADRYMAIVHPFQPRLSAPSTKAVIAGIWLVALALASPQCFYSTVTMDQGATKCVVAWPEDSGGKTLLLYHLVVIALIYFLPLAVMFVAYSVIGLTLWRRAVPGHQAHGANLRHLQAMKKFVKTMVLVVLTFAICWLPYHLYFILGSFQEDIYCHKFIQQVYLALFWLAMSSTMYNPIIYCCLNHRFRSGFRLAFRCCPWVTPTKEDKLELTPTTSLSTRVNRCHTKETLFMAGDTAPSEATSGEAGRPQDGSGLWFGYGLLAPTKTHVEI

H3 = H3 binding assay; set-up: species or system rat
M (non-selective) = M (non-selective) binding assay; set-up: species or system rat
5-HT (non-selective) = 5-HT (non-selective) binding assay; set-up: species or system rat; conditions: Hill coefficient, reference compound
Phosphodiesterase 3(h) = Phosphodiesterase 3(h) (Homo sapiens, UniProt Q14432); test: Phosphodiesterase 3(h) enzyme assay; format: biochemical; conditions: Hill coefficient, Phosphodiesterase 3(h)
Cytochrome P450 (CYP) [6] = molecular target: Cytochrome P450 (CYP) (Homo sapiens, UniProt P10635); test: ADME-Tox: In vitro Metabolism (Cytochrome P450, fluorogenic substrates BFC, CEC, MFC); conditions: Hill coefficient, CYP2D6 Inhibition (7-MFC substrate)
Sequence of Cytochrome P450 (CYP) (Homo sapiens, UniProt P10635) (P10635 whole entry): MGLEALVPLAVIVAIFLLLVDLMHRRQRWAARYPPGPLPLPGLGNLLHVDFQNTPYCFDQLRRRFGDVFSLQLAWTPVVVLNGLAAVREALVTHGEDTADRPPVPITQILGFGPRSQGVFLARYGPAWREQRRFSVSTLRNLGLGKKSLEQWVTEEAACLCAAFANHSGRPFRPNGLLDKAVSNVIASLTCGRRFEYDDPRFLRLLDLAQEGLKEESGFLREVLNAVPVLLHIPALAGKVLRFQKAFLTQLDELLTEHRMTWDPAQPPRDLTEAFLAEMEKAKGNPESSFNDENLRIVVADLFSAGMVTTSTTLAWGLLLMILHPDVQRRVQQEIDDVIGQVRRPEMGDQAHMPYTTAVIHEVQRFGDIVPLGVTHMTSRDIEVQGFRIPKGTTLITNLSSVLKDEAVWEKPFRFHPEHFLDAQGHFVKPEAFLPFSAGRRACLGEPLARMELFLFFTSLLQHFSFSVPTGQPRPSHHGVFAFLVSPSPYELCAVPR

T1 sequence (P23975 whole entry): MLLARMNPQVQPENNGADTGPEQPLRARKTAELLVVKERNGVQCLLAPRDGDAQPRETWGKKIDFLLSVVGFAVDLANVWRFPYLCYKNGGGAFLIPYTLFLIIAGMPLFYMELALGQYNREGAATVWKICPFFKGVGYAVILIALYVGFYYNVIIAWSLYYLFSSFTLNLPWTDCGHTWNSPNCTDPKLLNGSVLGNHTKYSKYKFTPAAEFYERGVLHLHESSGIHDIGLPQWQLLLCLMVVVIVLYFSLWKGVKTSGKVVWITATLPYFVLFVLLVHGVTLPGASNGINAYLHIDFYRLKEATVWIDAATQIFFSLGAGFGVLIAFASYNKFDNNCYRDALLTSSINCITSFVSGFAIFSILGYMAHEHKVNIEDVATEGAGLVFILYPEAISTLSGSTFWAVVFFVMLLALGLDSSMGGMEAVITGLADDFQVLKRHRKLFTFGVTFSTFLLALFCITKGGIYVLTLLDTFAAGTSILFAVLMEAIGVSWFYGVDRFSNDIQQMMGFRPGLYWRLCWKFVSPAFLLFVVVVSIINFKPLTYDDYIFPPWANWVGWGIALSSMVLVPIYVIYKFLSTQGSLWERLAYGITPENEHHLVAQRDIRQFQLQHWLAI

## CNCCCC1c2ccccc2C=Cc2ccccc21 [protriptyline, reference compound]
NE transporter(h)
  nH: 1.7

## O=C(CCCN1CCC(O)(c2ccc(Cl)cc2)CC1)c1ccc(F)cc1 [haloperidol, reference compound]
σ (non-selective)
  nH: 0.6

## OCCN(CCO)c1nc(N2CCCCC2)c2nc(N(CCO)CCO)nc(N3CCCCC3)c2n1 [dipyridamole]
Phosphodiesterase 5(h)
  nH: 1.5

## C=C(C)[C@@H]1[C@H]2OC(=O)[C@@H]1[C@]1(O)C[C@H]3O[C@]34C(=O)O[C@H]2[C@]14C [picrotoxinin, reference compound]
Cl-channel
  nH: 0.9

## endothelin-3 [endothelia-3, reference compound]
ETB(h)
  nH: 2.4

## [Sar^9,Met(O2)^11]-SP [reference compound]
NK1(h)
  nH: 0.9

## CN(C)C(=O)Oc1cccc([N+](C)(C)C)c1 [neostigmine]
Acetylcholinesterase(h)
  nH: 1.5

## COc1nc2c([nH]1)c(=O)n(C)c(=O)n2CC(C)C [Example 8-methoxy-IBMX]
Phosphodiesterase 1
  IC50: 2.4 µM

## NCCCC(=O)O [GAGA, GABA, reference compound]
GABA (non-selective)
  nH: 1.3

## COc1cc2nc(N3CCN(C(=O)c4ccco4)CC3)nc(N)c2cc1OC [prazosin, reference compound]
α1 (non-selective)
  nH: 1.6

## C[C@]1(O)CC[C@H]2[C@@H]3CCC4=CC(=O)CCC4=C3C=C[C@@]21C [methyltrienolone, reference compound]
Androgen(h) (AR)
  nH: 1.5

## endothelin-1 [endothelia-1, reference compound]
ETA(h)
  nH: 1.1

## CN/C(=N/CCSCc1nc[nH]c1C)NC#N [cimetidine, reference compound]
H2(h)
  nH: 0.9

## infliximab
[1]; Day 14
  macroscopic Damage Score: reduced the damage score
[1]; Day 14, vs CMC group
  reduction in colon weight: significant (P<0.05) reduction in colon weight
  reduction in colonic MPO activity: significantly attenuated the increase in MPO
  reduction in colonic TNF-α levels: significantly attenuated the increase in TNF-α levels
  reduction in colonic lesion area (% of the total area measured): significantly attenuated the area of injury
[1]; over 14 days, vs CMC group
  attenuation of TNBS-induced fall in body weight (% change of body weight at Day −1): significant on Day 2 and 3
TNBS colitis
  macroscopic injury, colonic MPO and TNF-α levels: found to reduce the macroscopic injury, colonic MPO and TNF-α levels

## CN1CCCC1c1cccnc1 (stereo not shown) [nicotine, reference compound]
[2]
  nH: 1.1

## CN(C)CCCN1c2ccccc2CCc2ccccc21 [imipramine, reference compound]
5-HT transporter(h)
  nH: 1.0

## Cc1nc2c([nH]1)c(=O)n(C)c(=O)n2Cc1ccco1 [furafylline]
Cytochrome P450 (CYP) [3]
  nH: 0.6

## Ro 41-0960
[4]
  IC50: 0.051 µM

## c1ccc2sc(C3(N4CCCCC4)CCCCC3)cc2c1 [BTCP, reference compound]
DA transporter(h)
  nH: 0.5

## COc1ccc([C@@H]2Sc3ccccc3N(CCN(C)C)C(=O)[C@@H]2OC(C)=O)cc1 [diltiazem, reference compound]
[5]
  nH: 0.9

## CC[C@H](NC(=O)c1c(C)c(-c2ccccc2)nc2ccccc12)c1ccccc1 [SB 222200, reference compound]
NK3(h)
  nH: 1.1

## AVP [reference compound]
V2(h)
  nH: 0.9

## [N1e^10]-NKA(4-10) [reference compound]
NK2(h)
  nH: 0.7

## C[C@@H](N)Cc1cnc[nH]1 [(R)a-Me-histamine, (R)α-Me-histamine, reference compound]
H3
  nH: 1.0

## CN1[C@@H]2CC[C@H]1C[C@@H](OC(=O)C(CO)c1ccccc1)C2 (stereo partly shown) [atropine, reference compound]
M (non-selective)
  nH: 1.2

## NCCc1c[nH]c2ccc(O)cc12 [serotonin, reference compound]
5-HT (non-selective)
  nH: 0.9

## Cc1[nH]c(=O)c(C#N)cc1-c1ccncc1 [milrinone]
Phosphodiesterase 3(h)
  nH: 0.8

## C=C[C@H]1C[N@@]2CC[C@H]1C[C@@H]2[C@@H](O)c1ccnc2ccc(OC)cc12 [quinidine]
Cytochrome P450 (CYP) [6]
  nH: 0.9
